Reference: patent US6670481B2, “Oxiranecarboxylic acids for the treatment of diabetes” (Medicone AG Gesellschaft fur Molekularbiologische …, priority 1997, dated 2003)

Legend:
Assay type in all cases: in vivo, rat (male Sprague-Dawley)
fed, healthy rats [1] = test: Cholesterol-lowering effect in blood plasma of fed, healthy rats; details: oral 100 μmol/kg for 16 days, 24 hours after last administration, mean of 10
Description: (§1) What is stated are the changes in per cent of the animals which have been treated with substance, compared to control animals which were treated with placebo, calculated from the mean values of in each case 10 individual values.
(§2) The test animals used were male Sprague-Dawley rats from the SPF breed Ivanovas (Kisslegg, Germany) having a body mass of 255-400 g. The animals were kept in a conventional manner, 4 animals each in cages made of Makrolon (22×38 cm) in a climatized room (21-23 degrees Celsius) with a fixed day/night rhythm (7a.m/7p.m) and a regulated relative atmospheric humidity of 55-60%. The animals received a maintenance diet—Altromin 1320 from Altromin (Lage, Germany)—and water ad libitum.
(§3) The animals were divided at random in 5 groups of 10 animals each and marked. The substances were administered to the animals in the form of a neutral, aqueous emulsion (1 part by weight of substance+2 parts by weight of Cremophor EL—an emulsifier from BASF AG, Germany—) in a volume of 10 ml/kg of body weight using a stomach tube.
(§4) To determine the parameters triglycerides, cholesterol and the activity of the glutamic-pyruvic transaminase (GPT), blood plasma was used. The blood plasma was obtained as an erythrocyte-free supernatant 15 minutes after venous blood sampling into heparinized Eppendorf reaction vessels by centrifugation (2×2 minutes at 16,000 rpm in an Eppendorf centrifuge).
Enzymatic colour test (CHOD-PAP method), test combination from Boehringer Mannheim, Germany.

healthy, fed rats [2] = test: Increase in activity of liver enzyme glutamic-pyruvate transaminase (GPT) in blood plasma; details: oral equimolar doses for 16 days, 24 hours after last administration
From the text: as §2, §3, §4
Kinetic enzyme test, test combination from Boehringer Mannheim, Germany.

healthy, fed rats [3] = test: Increase of relative weight of the heart (cardiac hypertrophy); details: weight of heart/100 g body weight, oral equimolar doses for 16 days, 24 hours after last administration
From the text: as §2, §3
The animals were killed by decapitation and exsanguination, and the weight of the heart muscle, which had been freed from the right atrium, was determined by weighing and based on 100 g of body. weight.

[4] = tested on: insulin-resistant rats (after 24 hour fasting); test: Blood glucose-lowering effect in insulin-resistant (24 hour fasted) rats; details: for (A) Glucose (%), change vs placebo-treated control animals: blood, rats fasted 24 hours, 2 hours after oral administration of 100 μmol/kg, mean of 10 animals; for Superiority compared to the prior art with respect to lowering glucose after fasting: fasting as experimental model of insulin resistance, result in words
Description: The compounds of the formula I according to the invention lower the glucose concentration in the blood of rats which have been made insulin-resistant by prolonged fasting.
as §1, §2
To determine the effect of the substance on blood glucose, feed was withdrawn 24 hours before the administration of the substance to produce an insulin-resistant condition.
as §3
To determine the glucose in the blood, 50 μl of blood were collected from the retrobulbular venousplexus 2 hours after the administration of the substance, using a glass capillary, from animals which had been fasting for 24 hours, and the blood was deproteinated in ice-cold perchloric acid (0.66 mol/l). After centrifugation, the glucose was determined in the supernatant using enzymatic standard methods.
Enzymatic test with hexokinase/[…], test combination from Boehringer Mannheim, Germany.

healthy, fed rats [5] = test: Pharmacological safety index; details: for (C) Safety index (%): lowering of glucose + triglycerides + cholesterol in per cent divided by increase of GPT activity + relative heart weight in per cent, higher = safer; for Safety index compared to the prior art: result in words, from Table 2
From the text: The higher the index, the greater the safety of the substance.

fed, healthy rats [6] = test: Triglyceride-lowering effect in blood plasma of fed, healthy rats; details: for (B) Triglycerides (%), change vs placebo-treated control animals: blood plasma, fed healthy rats, oral 100 μmol/kg for 16 days, 24 hours after last administration, mean of 10
Description: as §1, §2, §3, §4
Enzymatic test with lipase/glycerokinase, test combination from Boehringer Mannheim, Germany.

| Structure (SMILES) | (C) Cholesterol (%), change vs placebo-treated control animals (fed, healthy rats [1]) [%] | (A) GPT activity (%), increase (healthy, fed rats [2]) [%] | (B) Relative weight of the heart (%), increase (healthy, fed rats [3]) [%] | (A) Glucose (%), change vs placebo-treated control animals [4] [%] | (C) Safety index (%) (healthy, fed rats [5]) | (B) Triglycerides (%), change vs placebo-treated control animals (fed, healthy rats [6]) [%] | Superiority compared to the prior art with respect to lowering glucose after fasting [4] | Safety index compared to the prior art (healthy, fed rats [5]) | Effect compared to the prior art, taking into account the triglyceride- and cholesterol-lowering effect (fed, healthy rats [6]; result in words, from Tab. 1) |
| --- | --- | --- | --- | --- | --- | --- | --- | --- | --- |
| CCOC(=O)C1(CCCCCCOc2ccc(Cl)cc2)CO1 (stereo not drawn) [Substance 1] | −15 | 8 | 14 | −18 | 3.77 | −50 | – | – | – |
| CCOC(=O)C1(CCCCCCOc2ccc(OC(F)F)cc2)CO1 (stereo not drawn) [Substance 2] | −13 | 5 | 14 | −27 | 5.74 | −69 | particularly pronounced | superior to the prior art | – |
| CCOC(=O)C1(CCCCCOc2ccc(OC(F)F)cc2)CO1 (stereo not drawn) [Substance 3] | −26 | 12 | 11 | −27 | 5.48 | −73 | particularly pronounced | superior to the prior art | superior to the prior art |
| CCOC(=O)C1(CCCCCOc2ccc(C(C)=O)cc2)CO1 (stereo not drawn) [Substance 4] | −8 | −9 | −2 | −7 | 56 | −41 | – | particularly superior to the prior art | – |
